{"source": "patent US4407804A", "about": "“Analgesic mixture of nalbuphine and indomethacin” (E. I. Du Pont de Nemours and Company, priority 1982, dated 1983)", "test_system": "phenyl-p-benzoquinone induced writhing in mice", "experiment": "Mouse antiphenylquinone (phenyl-p-benzoquinone induced) writhing test, oral", "settings": "for % mice blocked: 40 min", "method": "Male CF1 mice obtained from Charles River Breeding Laboratories, fasted for 16-22 hours and weighing 18-22 g at the time of testing are used throughout. All mice are dosed sequentially by the oral route with solutions of indomethacin and/or of nalbuphine hydrochloride. A dosing volume of 10 ml/kg is used for each sequential solution. […] All doses are coded and the test is performed under a code not known to the observer.\nA stock solution of indomethacin is prepared by dissolving dry indomethacin powder with an aqueous vehicle containing 2% by volume of Tween 80®, a pharmacological dispersant manufactured by Fisher Scientific Company and containing 100% polysorbate 80. All dosing solutions are prepared by dilution of the stock solution with the 2% Tween 80® vehicle; the vehicle control is 2% Tween 80®. All solutions are prepared fresh daily.\nStock solutions of nalbuphine HCl are prepared by dissolving dry nalbuphine hydrochloride powder with distilled water. All dosing solutions are prepared by dilution of the stock solution with distilled water; the vehicle control is distilled water.\nAs indicated above, the standard procedure based upon the prevention of phenyl-p-benzoquinone induced writhing in mice is utilized to detect and quantify the analgetic activity of compositions containing nalbuphine and indomethacin.\nMice, intubated with various doses of nalbuphine hydrochloride, indomethacin, combined doses of nalbuphine hydrochloride and indomethacin,or vehicle, are injected intraperitoneally with a standard challenge dose of phenyl-p-benzoquinone 5 minutes prior to the designated observation period. […] For scoring purposes a \"writhe\" is indicated by whole body stretching or contraction of the abdomen; mice are observed 10 minutes for the presence or absence of writhing beginning 5 minutes after receiving the phenyl-p-benzoquinone dose. Each mouse is used only once, then discarded. […] This dosage as described herein is referred to as the ED50.\nIn order to study the interaction between nalbuphine and indomethacin, 5 precise dosage ratios of nalbuphine hydrochloride and indomethacin were selected. Four or five coded doses of each selected combination were studied for analgesic effectiveness at 40 minutes using an experimental design which permits coding and complete randomization of the separate dosage forms tested. Altogether 35 separate dosage forms are used and each form is represented in each experimental session. The experiments are continued by running experimental sessions with an equal number of mice per group being tested until the total number, N, of mice tested per group is 60."}
{"smiles": "COc1ccc2c(c1)c(CC(=O)O)c(C)n2C(=O)c1ccc(Cl)cc1", "note": "[Indomethacin, 1-(p-chlorobenzoyl)-5-methoxy-2-methylindole-3-acetic acid]", "values": [{"measurement": "% mice blocked", "setting": "indomethacin 0.398 mg/kg, nalbuphine HCl 0", "value": 18.3, "unit": "%"}, {"measurement": "% mice blocked", "setting": "indomethacin 0.795 mg/kg, nalbuphine HCl 0", "value": 30.0, "unit": "%"}, {"measurement": "% mice blocked", "setting": "indomethacin 1.59 mg/kg, nalbuphine HCl 0", "value": 78.3, "unit": "%"}, {"measurement": "% mice blocked", "setting": "indomethacin 3.18 mg/kg, nalbuphine HCl 0", "value": 85.0, "unit": "%"}, {"measurement": "ED50 at 40 min, Indomethacin (amount of indomethacin in the ED50 dose)", "setting": "mouse, N=60 mice/dose, indomethacin alone or as component of the fixed-ratio combination", "value": 1.08, "unit": "mg/kg"}]}
{"smiles": "Oc1ccc2c3c1O[C@H]1[C@@H](O)CC[C@@]4(O)[C@@H](C2)N(CC2CCC2)CC[C@]314", "note": "[Nalbuphine, (-)-17-(cyclobutylmethyl)-4,5α-epoxymorphinan-3,6α,14-triol]", "values": [{"measurement": "% mice blocked", "setting": "nalbuphine HCl 5.45 mg/kg, indomethacin 0", "value": 10.0, "unit": "%"}, {"measurement": "% mice blocked", "setting": "nalbuphine HCl 10.9 mg/kg, indomethacin 0", "value": 13.3, "unit": "%"}, {"measurement": "% mice blocked", "setting": "nalbuphine HCl 21.8 mg/kg, indomethacin 0", "value": 46.7, "unit": "%"}, {"measurement": "% mice blocked", "setting": "nalbuphine HCl 43.6 mg/kg, indomethacin 0", "value": 66.7, "unit": "%"}, {"measurement": "% mice blocked", "setting": "nalbuphine HCl 87.2 mg/kg, indomethacin 0", "value": 66.7, "unit": "%"}, {"measurement": "ED50 at 40 min, Nalbuphine HCl (amount of nalbuphine HCl in the ED50 dose)", "setting": "mouse, N=60 mice/dose, nalbuphine HCl alone or as component of the fixed-ratio combination", "value": 35.5, "unit": "mg/kg"}]}
